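Results reflect a 48-hour exposure of cells in 96-well plates to compound at five concentrations. Here, GI50 denotes the concentration required for 50% inhibition of growth.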 Calls of active or inactive are those of the source. Rule as the data show it: active = GI50 up to about 1.1 µM and inactive = higher.
Assays:
Experiment in all cases: inhibition of tumour cell growth, NCI panel, 48 h
OVCAR-8 = tested on: OVCAR-8
LXFL 529 = tested on: LXFL 529
CCRF-CEM = tested on: CCRF-CEM
EKVX = tested on: EKVX
HT-29 = tested on: HT-29
TK-10 = tested on: TK-10
HL-60 = tested on: HL-60
NCI-H522 = tested on: NCI-H522
Malme-3M = tested on: Malme-3M
KM12 = tested on: KM12
DLD-1 = tested on: DLD-1
K562 = tested on: K562
HCT-116 = tested on: HCT-116
SF-268 = tested on: SF-268
KM-20L2 = tested on: KM-20L2
DMS-114 = tested on: DMS-114
SW-620 = tested on: SW-620
RXF 393 = tested on: RXF 393
SF-295 = tested on: SF-295
SNB-19 = tested on: SNB-19
OVCAR-4 = tested on: OVCAR-4
COLO 205 = tested on: COLO 205
HCC 2998 = tested on: HCC 2998
UACC-257 = tested on: UACC-257
SR = tested on: SR
UO-31 = tested on: UO-31
NCI-H23 = tested on: NCI-H23
MOLT-4 = tested on: MOLT-4
A498 = tested on: A498
RPMI-8226 = tested on: RPMI-8226
HCT-15 = tested on: HCT-15
A549 = tested on: A549
SNB-78 = tested on: SNB-78
U-251 = tested on: U-251
DMS-273 = tested on: DMS-273
SK-MEL-28 = tested on: SK-MEL-28
OVCAR-3 = tested on: OVCAR-3
ACHN = tested on: ACHN
SN12C = tested on: SN12C
XF498 = tested on: XF498
OVCAR-5 = tested on: OVCAR-5
786-0 = tested on: 786-0
NCI-H226 = tested on: NCI-H226
LOX IMVI = tested on: LOX IMVI
IGROV-1 = tested on: IGROV-1
M19-MEL = tested on: M19-MEL
NCI-H460 = tested on: NCI-H460
HOP-62 = tested on: HOP-62
SK-MEL-5 = tested on: SK-MEL-5
M14 = tested on: M14
SK-MEL-2 = tested on: SK-MEL-2
CAKI-1 = tested on: CAKI-1
SK-OV-3 = tested on: SK-OV-3
UACC-62 = tested on: UACC-62
HOP-18 = tested on: HOP-18
HOP-92 = tested on: HOP-92
SNB-75 = tested on: SNB-75

Compound: Cc1ccc(N2C[N+](c3ccccc3)=NC(c3ccccc3)=N2)cc1
- GI50 (OVCAR-8): 48.1 µM (inactive)
- GI50 (LXFL 529): 24.8 µM (inactive)
- GI50 (CCRF-CEM): 19.6 µM (inactive)
- GI50 (EKVX): 32.4 µM (inactive)
- GI50 (HT-29): 39.3 µM (inactive)
- GI50 (TK-10): > 100 µM (inactive)
- GI50 (HL-60): 33.6 µM (inactive)
- GI50 (NCI-H522): > 10 µM (inactive)
- GI50 (Malme-3M): 43.6 µM (inactive)
- GI50 (KM12): 67.6 µM (inactive)
- GI50 (DLD-1): 54.6 µM (inactive)
- GI50 (K562): 23.2 µM (inactive)
- GI50 (HCT-116): 35.4 µM (inactive)
- GI50 (SF-268): > 100 µM (inactive)
- GI50 (KM-20L2): 56.9 µM (inactive)
- GI50 (DMS-114): 24.4 µM (inactive)
- GI50 (SW-620): 51.8 µM (inactive)
- GI50 (RXF 393): 80.2 µM (inactive)
- GI50 (SF-295): 61.7 µM (inactive)
- GI50 (SNB-19): 39.2 µM (inactive)
- GI50 (OVCAR-4): 40.1 µM (inactive)
- GI50 (COLO 205): 31.8 µM (inactive)
- GI50 (HCC 2998): 48.3 µM (inactive)
- GI50 (UACC-257): 53.2 µM (inactive)
- GI50 (SR): 36.4 µM (inactive)
- GI50 (UO-31): 35.9 µM (inactive)
- GI50 (NCI-H23): 38.9 µM (inactive)
- GI50 (MOLT-4): 21.3 µM (inactive)
- GI50 (A498): 71.9 µM (inactive)
- GI50 (RPMI-8226): 33 µM (inactive)
- GI50 (HCT-15): 48.1 µM
- GI50 (A549): 66.8 µM (inactive)
- GI50 (SNB-78): > 10 µM (inactive)
- GI50 (U-251): 44.6 µM (inactive)
- GI50 (DMS-273): 30.3 µM (inactive)
- GI50 (SK-MEL-28): 55.7 µM (inactive)
- GI50 (OVCAR-3): 29.4 µM (inactive)
- GI50 (ACHN): 32.7 µM (inactive)
- GI50 (SN12C): 62.2 µM (inactive)
- GI50 (XF498): 43.8 µM (inactive)
- GI50 (OVCAR-5): > 100 µM (inactive)
- GI50 (786-0): 68.9 µM (inactive)
- GI50 (NCI-H226): 60.8 µM (inactive)
- GI50 (LOX IMVI): 32.4 µM (inactive)
- GI50 (IGROV-1): 48.4 µM (inactive)
- GI50 (M19-MEL): 28.9 µM (inactive)
- GI50 (NCI-H460): 54.1 µM (inactive)
- GI50 (HOP-62): > 100 µM (inactive)
- GI50 (SK-MEL-5): 23.9 µM (inactive)

Compound: CCOC(=O)/C=C1/Oc2ccccc2C1(C)O (centres undefined)
- GI50 (OVCAR-8): > 100 µM (inactive)
- GI50 (LXFL 529): > 100 µM (inactive)
- GI50 (CCRF-CEM): > 100 µM (inactive)
- GI50 (M14): > 100 µM (inactive)
- GI50 (EKVX): > 100 µM (inactive)
- GI50 (HT-29): > 100 µM (inactive)
- GI50 (TK-10): > 100 µM (inactive)
- GI50 (HL-60): > 100 µM (inactive)
- GI50 (NCI-H522): > 100 µM (inactive)
- GI50 (Malme-3M): > 100 µM (inactive)
- GI50 (KM12): > 100 µM (inactive)
- GI50 (DLD-1): > 100 µM (inactive)
- GI50 (SK-MEL-2): > 100 µM (inactive)
- GI50 (K562): > 100 µM (inactive)
- GI50 (HCT-116): > 100 µM (inactive)
- GI50 (SF-268): > 100 µM (inactive)
- GI50 (KM-20L2): > 100 µM (inactive)
- GI50 (CAKI-1): > 100 µM (inactive)
- GI50 (DMS-114): > 100 µM (inactive)
- GI50 (SW-620): > 100 µM (inactive)
- GI50 (RXF 393): 68.7 µM (inactive)
- GI50 (SF-295): > 100 µM (inactive)
- GI50 (SK-OV-3): > 100 µM (inactive)
- GI50 (SNB-19): > 100 µM (inactive)
- GI50 (OVCAR-4): > 100 µM (inactive)
- GI50 (COLO 205): > 100 µM (inactive)
- GI50 (HCC 2998): > 100 µM (inactive)
- GI50 (UACC-257): > 100 µM (inactive)
- GI50 (UO-31): > 100 µM (inactive)
- GI50 (UACC-62): > 100 µM (inactive)
- GI50 (NCI-H23): > 100 µM (inactive)
- GI50 (MOLT-4): > 100 µM (inactive)
- GI50 (A498): > 100 µM (inactive)
- GI50 (RPMI-8226): 84.5 µM (inactive)
- GI50 (HCT-15): > 100 µM
- GI50 (A549): > 100 µM (inactive)
- GI50 (SNB-78): > 100 µM (inactive)
- GI50 (U-251): > 100 µM (inactive)
- GI50 (DMS-273): > 100 µM (inactive)
- GI50 (HOP-18): > 100 µM (inactive)
- GI50 (SK-MEL-28): > 100 µM (inactive)
- GI50 (OVCAR-3): > 100 µM (inactive)
- GI50 (ACHN): > 100 µM (inactive)
- GI50 (SN12C): > 100 µM (inactive)
- GI50 (HOP-92): > 100 µM (inactive)
- GI50 (SNB-75): > 100 µM (inactive)
- GI50 (OVCAR-5): > 100 µM (inactive)
- GI50 (786-0): > 100 µM (inactive)
- GI50 (NCI-H226): > 100 µM (inactive)
- GI50 (LOX IMVI): > 100 µM (inactive)
- GI50 (IGROV-1): > 100 µM (inactive)
- GI50 (M19-MEL): > 100 µM (inactive)
- GI50 (NCI-H460): > 100 µM (inactive)
- GI50 (HOP-62): > 100 µM (inactive)
- GI50 (SK-MEL-5): > 100 µM (inactive)

From ChEMBL document CHEMBL1201862, “PubChem BioAssay data set” (2004)
